Laboratory results reported in the supplement of paper PMC10307832.

Experiments:
Experiment in all cases: relative viability (nuclei count vs DMSO), 5 days (fraction); higher = more cells survive
[1] = compound: CN(C)C[C@@H]1CCn2cc(c3ccccc32)C2=C(C(=O)NC2=O)c2cn(c3ccccc23)CCO1 [Ruboxistaurin] + Nc1ncn([C@H]2C[C@H](O)[C@@H](CO)O2)c(=O)n1 [Decitabine] (partner 2 µM)
Outline: (§1)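 For relative viability, nuclei counts in treated wells were divided by those in vehicle wells. Lung cancer cell lines had been pin-tool dosed in 1536-well plates the day after seeding and cultured for 5 days, then fixed and stained in one step (final 0.05% Triton X-100, 1% formaldehyde, 1 ug/ml Hoechst) and imaged at 4×. Doses were one drug alone or a fixed anchor-drug dose plus five library-drug doses (not always all listed) in √10 steps, and values are duplicate-plate medians.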

[2] = compound: CN(C)C[C@@H]1CCn2cc(c3ccccc32)C2=C(C(=O)NC2=O)c2cn(c3ccccc23)CCO1 [Ruboxistaurin] + COc1cc2c(Oc3ccc(NC(=O)C4(C(=O)Nc5ccc(F)cc5)CC4)cc3F)ccnc2cc1OCCCN1CCOCC1 [Foretinib] (partner 0.25 µM)
Outline: as §1

Ruboxistaurin + OSI-027 = compound: CN(C)C[C@@H]1CCn2cc(c3ccccc32)C2=C(C(=O)NC2=O)c2cn(c3ccccc23)CCO1 [Ruboxistaurin] + COc1cccc2cc(-c3nc([C@H]4CC[C@H](C(=O)O)CC4)n4ncnc(N)c34)[nH]c12 [OSI-027] (partner 0.5 µM)
Outline: as §1

[3] = compound: CN(C)C[C@@H]1CCn2cc(c3ccccc32)C2=C(C(=O)NC2=O)c2cn(c3ccccc23)CCO1 [Ruboxistaurin] + Cc1nc(NC(=O)N2CCC[C@H]2C(N)=O)sc1-c1ccnc(C(C)(C)C(F)(F)F)c1 [Alpelisib] (partner 2 µM)
Outline: as §1

[4] = compound: CN(C)C[C@@H]1CCn2cc(c3ccccc32)C2=C(C(=O)NC2=O)c2cn(c3ccccc23)CCO1 [Ruboxistaurin] + CCNC(=O)c1noc(-c2cc(C(C)C)c(O)cc2O)c1-c1ccc(CN2CCOCC2)cc1 [Luminespib] (partner 0.01 µM)
Outline: as §1

Cell Line	relative viability ([1]; first compound 0.08 µM)	relative viability ([1]; first compound 0.8 µM)	relative viability ([1]; first compound 2.53 µM)	relative viability ([1]; first compound 8 µM)	relative viability ([2]; first compound 0.08 µM)	relative viability ([2]; first compound 0.8 µM)	relative viability ([2]; first compound 2.53 µM)	relative viability ([2]; first compound 8 µM)	relative viability (Ruboxistaurin + OSI-027; first compound 0.08 µM)	relative viability (Ruboxistaurin + OSI-027; first compound 0.8 µM)	relative viability (Ruboxistaurin + OSI-027; first compound 2.53 µM)	relative viability (Ruboxistaurin + OSI-027; first compound 8 µM)	relative viability ([3]; first compound 0.08 µM)	relative viability ([3]; first compound 0.8 µM)	relative viability ([3]; first compound 2.53 µM)	relative viability ([3]; first compound 8 µM)	relative viability ([4]; first compound 0.08 µM)	relative viability ([4]; first compound 0.8 µM)	relative viability ([4]; first compound 2.53 µM)	relative viability ([4]; first compound 8 µM)
EMC-BAC-2	0.968	0.949	0.979	0.842	1.03	0.872	1.03	0.51	0.399	0.343	0.362	0.258	0.75	0.703	0.733	0.612	1.23	1.12	0.991	0.925
NCI-H661	0.563	0.555	0.578	0.61	1.05	0.996	1.07	1.07	0.78	0.599	0.695	0.6	0.982	0.696	0.902	0.567	0.883	0.817	0.942	1.01
LU99A	0.861	0.762	1.01	0.773	0.802	0.774	0.778	0.751	0.285	0.271	0.266	0.258	0.552	0.48	0.45	0.297	0.239	0.224	0.265	0.24
LK-2	0.356	0.315	0.402	0.238	1.32	0.962	0.927	0.892	0.224	0.222	0.158	0.158	1.19	1.01	1	0.577	0.22	0.182	0.154	0.172
NCI-H3122	0.535	0.376	0.466	0.426	0.938	0.982	1.01	0.975	0.921	0.811	0.886	0.582	0.837	0.562	0.737	0.587	0.0884	0.1	0.11	0.0946
NCI-H2347	0.648	0.58	0.626	0.664	0.951	0.798	1.05	0.763	0.483	0.429	0.354	0.356	1.09	0.951	0.967	0.863	0.568	0.373	0.289	0.297
NCI-H1563	–	–	–	–	1.03	0.892	0.946	0.856	0.796	0.748	0.694	0.66	0.972	0.867	1.05	0.849	0.507	0.544	0.483	0.52
HCC-827	0.349	0.344	0.376	0.319	1.17	1.03	1.03	1	0.889	0.82	0.772	0.605	1.13	1.02	0.984	0.969	0.748	0.708	0.627	0.612
NCI-H1666	0.728	0.693	0.693	0.788	0.986	0.919	0.894	0.871	0.885	0.785	0.929	0.759	1.12	0.809	0.789	0.585	1.03	0.964	1.03	1.08
NCI-H358	0.227	0.205	0.246	0.256	0.878	0.603	0.829	0.535	0.95	0.642	0.787	0.471	0.927	0.666	0.75	0.424	0.498	0.32	0.242	0.386
201T	0.858	0.834	0.824	0.914	1.17	1.02	1.19	0.995	0.694	0.723	0.675	0.59	1.03	1.01	1.01	1.01	1.09	1.01	1.09	1
PC-3 [JPC-3]	0.897	0.814	0.922	0.838	1.06	1.03	1.02	1.09	0.922	0.701	0.72	0.622	1.02	0.956	1.01	0.976	0.703	0.649	0.75	0.757
NCI-H2405	0.798	0.676	0.763	0.756	1.07	0.961	0.998	1.01	0.652	0.592	0.633	0.56	0.936	0.681	0.775	0.835	0.818	0.606	0.804	0.699
LXF-289	0.377	0.338	0.38	0.418	1.01	0.895	0.966	1.04	0.804	0.74	0.9	0.623	1.11	0.952	0.994	1	0.679	0.628	0.677	0.754
EKVX	0.334	0.246	0.34	0.426	0.898	0.694	0.848	0.738	0.734	0.751	0.709	0.641	0.998	0.807	0.858	0.745	0.945	0.843	0.919	0.926
A-427	0.605	0.527	0.564	0.548	1.01	0.952	0.928	0.659	0.506	0.406	0.458	0.343	1.07	0.996	1.02	0.874	0.974	0.757	0.869	0.611
IA-LM	–	–	–	–	1.14	1.11	1.31	1.38	–	–	–	–	0.971	0.663	0.747	0.612	–	–	–	–
ChaGo-K-1	0.592	0.487	0.53	0.535	0.916	0.888	0.965	0.912	0.658	0.572	0.618	0.449	–	–	–	–	0.63	0.558	0.76	0.529

Cell Line	relative viability ([1]; first compound 0.08 µM)	relative viability ([1]; first compound 0.8 µM)	relative viability ([1]; first compound 2.53 µM)	relative viability ([1]; first compound 8 µM)	relative viability ([2]; first compound 0.08 µM)	relative viability ([2]; first compound 0.8 µM)	relative viability ([2]; first compound 2.53 µM)	relative viability ([2]; first compound 8 µM)	relative viability (Ruboxistaurin + OSI-027; first compound 0.08 µM)	relative viability (Ruboxistaurin + OSI-027; first compound 0.8 µM)	relative viability (Ruboxistaurin + OSI-027; first compound 2.53 µM)	relative viability (Ruboxistaurin + OSI-027; first compound 8 µM)	relative viability ([3]; first compound 0.08 µM)	relative viability ([3]; first compound 0.8 µM)	relative viability ([3]; first compound 2.53 µM)	relative viability ([3]; first compound 8 µM)	relative viability ([4]; first compound 0.08 µM)	relative viability ([4]; first compound 0.8 µM)	relative viability ([4]; first compound 2.53 µM)	relative viability ([4]; first compound 8 µM)
NCI-H2342	0.689	0.737	0.757	0.819	1.2	0.83	1.06	1.18	0.678	0.672	0.608	0.698	–	–	–	–	0.762	0.732	0.892	0.738
SK-MES-1	0.382	0.363	0.389	0.427	1.08	0.791	0.969	0.858	0.676	0.554	0.525	0.327	1	0.782	0.837	0.801	0.928	0.65	0.859	0.363
LCLC-97TM1	0.179	0.191	0.278	0.231	0.863	0.891	0.923	0.825	0.508	0.547	0.482	0.243	0.245	–	0.223	0.204	0.769	0.815	0.741	0.675
NCI-H2170	0.464	0.472	0.509	0.458	1.02	1.02	1.05	1.05	0.736	0.599	0.67	0.536	0.82	0.716	0.823	0.694	0.779	0.649	0.758	0.522
NCI-H1993	0.579	0.559	0.582	0.522	0.941	0.623	0.905	0.691	0.6	0.479	0.543	0.531	0.615	0.664	0.664	0.628	1.06	0.599	0.926	0.887
NCI-H460	0.49	0.448	0.533	0.595	1.03	0.904	1.08	0.996	0.604	0.557	0.501	0.217	0.398	0.324	0.26	0.137	0.0344	0.0361	0.0325	0.0312
NCI-H1975	0.43	0.346	0.393	0.42	0.979	1.03	1.05	0.856	0.751	0.578	0.645	0.502	0.678	0.565	0.561	0.447	0.266	0.0934	0.223	0.209
CAL-12T	–	–	–	–	1.28	1.18	1.16	1.16	0.797	0.449	0.69	0.391	1.47	1.17	1.27	1.13	0.399	0.472	0.362	0.544
NCI-H1792	0.63	0.479	0.491	0.554	–	–	–	–	0.798	0.605	0.736	0.625	0.77	0.62	0.695	0.694	0.431	0.317	0.375	0.32
HCC-366	0.361	0.351	0.325	0.317	1.08	0.919	0.882	0.874	0.965	0.675	0.869	0.411	0.536	0.326	0.373	0.226	–	–	–	–
HCC-44	0.974	0.882	1.01	1.02	–	–	–	–	0.576	0.403	0.481	0.59	0.765	0.715	0.831	0.755	1.16	0.973	1.06	1.09
NCI-H1703	–	–	–	–	0.367	–	0.408	0.327	–	–	–	–	0.356	0.323	0.366	0.308	–	–	–	–
NCI-H1650	0.387	0.524	0.501	0.468	1.66	1.01	1.31	1.09	0.711	0.408	0.614	0.376	–	–	–	–	0.185	0.207	0.189	0.183
HCC-78	0.636	0.663	0.756	0.635	0.553	0.593	0.546	0.528	0.346	0.335	0.316	0.3	0.358	0.311	0.327	0.286	–	–	–	–
NCI-H522	0.753	0.671	0.667	0.658	–	–	–	–	0.741	0.783	0.909	0.689	–	–	–	–	1.23	1.1	0.974	1.04
SW 900	0.4	0.395	0.5	0.566	0.918	0.872	0.833	0.955	0.555	0.5	0.593	0.422	–	–	–	–	0.216	0.194	0.177	0.177
NCI-H2228	–	–	–	–	0.906	0.772	0.86	0.729	0.6	0.439	0.549	0.281	0.85	0.675	0.837	0.478	0.173	0.172	0.125	0.111
